Measurements as given in the supplement of paper PMC10307832.

What was measured:
Experiment in all cases: relative viability (nuclei count vs DMSO), 5 days (fraction); higher = more cells survive
Ispinesib + Navitoclax = compound: Cc1ccc(C(=O)N(CCCN)[C@@H](c2nc3cc(Cl)ccc3c(=O)n2Cc2ccccc2)C(C)C)cc1 [Ispinesib] + CC1(C)CCC(c2ccc(Cl)cc2)=C(CN2CCN(c3ccc(C(=O)NS(=O)(=O)c4ccc(N[C@H](CCN5CCOCC5)CSc5ccccc5)c(S(=O)(=O)C(F)(F)F)c4)cc3)CC2)C1 [Navitoclax] (partner 0.5 µM)
In short: (§1)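 After 5 days of treatment, lung cancer cells in 1536-well plates were fixed and stained in a single step (final 0.05% Triton X-100, 1% formaldehyde, 1 ug/ml Hoechst) and their nuclei counted on 4× images. Treatment had been applied by pin tool the day after seeding as one drug alone or as a fixed anchor-drug dose with five library-drug doses (not always all listed) in √10 steps. Relative viability is the nuclei count of treated wells divided by that of vehicle wells, and values are medians of duplicate plates.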

Linsitinib + Foretinib = compound: C[C@]1(O)C[C@@H](c2nc(-c3ccc4ccc(-c5ccccc5)nc4c3)c3c(N)nccn32)C1 [Linsitinib] + COc1cc2c(Oc3ccc(NC(=O)C4(C(=O)Nc5ccc(F)cc5)CC4)cc3F)ccnc2cc1OCCCN1CCOCC1 [Foretinib] (partner 0.25 µM)
In short: as §1

Linsitinib + Bortezomib = compound: C[C@]1(O)C[C@@H](c2nc(-c3ccc4ccc(-c5ccccc5)nc4c3)c3c(N)nccn32)C1 [Linsitinib] + CC(C)C[C@H](NC(=O)[C@H](Cc1ccccc1)NC(=O)c1cnccn1)B(O)O [Bortezomib] (partner 0.002 µM)
In short: as §1

Ispinesib + Linsitinib = compound: Cc1ccc(C(=O)N(CCCN)[C@@H](c2nc3cc(Cl)ccc3c(=O)n2Cc2ccccc2)C(C)C)cc1 [Ispinesib] + C[C@]1(O)C[C@@H](c2nc(-c3ccc4ccc(-c5ccccc5)nc4c3)c3c(N)nccn32)C1 [Linsitinib] (partner 1 µM)
In short: as §1

Row | Cell Line | relative viability (Ispinesib + Navitoclax; first compound 0.001 µM) | relative viability (Ispinesib + Navitoclax; first compound 0.003162 µM) | relative viability (Ispinesib + Navitoclax; first compound 0.01 µM) | relative viability (Ispinesib + Navitoclax; first compound 0.03162 µM) | relative viability (Ispinesib + Navitoclax; first compound 0.1 µM) | relative viability (Linsitinib + Foretinib; first compound 0.01 µM) | relative viability (Linsitinib + Foretinib; first compound 0.03162 µM) | relative viability (Linsitinib + Foretinib; first compound 0.1 µM) | relative viability (Linsitinib + Foretinib; first compound 0.3162 µM) | relative viability (Linsitinib + Foretinib; first compound 1 µM) | relative viability (Linsitinib + Bortezomib; first compound 0.01 µM) | relative viability (Linsitinib + Bortezomib; first compound 0.03162 µM) | relative viability (Linsitinib + Bortezomib; first compound 0.1 µM) | relative viability (Linsitinib + Bortezomib; first compound 0.3162 µM) | relative viability (Linsitinib + Bortezomib; first compound 1 µM) | relative viability (Ispinesib + Linsitinib; first compound 0.001 µM) | relative viability (Ispinesib + Linsitinib; first compound 0.003162 µM) | relative viability (Ispinesib + Linsitinib; first compound 0.01 µM) | relative viability (Ispinesib + Linsitinib; first compound 0.03162 µM) | relative viability (Ispinesib + Linsitinib; first compound 0.1 µM)
1 | 201T | 1.23 | 1.17 | 1.19 | 1.17 | 1.08 | 1.19 | 1.15 | 1.07 | 1.2 | 0.82 | 1.1 | 1.12 | 1.08 | 1.08 | 1.03 | 1.08 | 1.06 | 1.06 | 1.01 | 0.988
2 | NCI-H1437 | 1.28 | 1.1 | 1.43 | 1.06 | 0.295 | 1.18 | 1.11 | 1.25 | 0.822 | 1.25 | 0.561 | 0.507 | 0.545 | 0.302 | 0.38 | 1.12 | 1.28 | 1.54 | 0.995 | 0.303
3 | A-427 | 0.938 | 0.995 | 1.06 | 0.827 | 0.903 | 1.12 | 1.15 | 1.19 | – | 1.11 | 0.974 | 1.02 | 0.987 | – | 0.869 | 1.15 | 1.13 | 1.15 | 1.21 | 1.12
4 | HCC-366 | 1.16 | 1.02 | 1.31 | 1.2 | 0.27 | 0.95 | 0.996 | 0.907 | 0.932 | 0.956 | 1.06 | 1.02 | 1.1 | 0.959 | 0.906 | 1.13 | 0.595 | 1.04 | 0.719 | 0.167
5 | BEN | 0.0635 | 0.0753 | 0.0591 | 0.0599 | 0.053 | 0.635 | 0.578 | 0.642 | – | 0.753 | 0.884 | 0.78 | 0.658 | 0.612 | 0.626 | 1 | 1.12 | 1.06 | 0.682 | 0.32
6 | NCI-H2347 | 0.819 | 0.727 | 0.967 | 0.762 | 0.609 | 0.838 | 0.874 | 0.741 | 0.892 | 0.967 | 0.885 | 0.737 | 0.941 | 0.77 | 1.05 | 1.01 | 1.04 | 1.13 | 0.805 | 0.913
7 | Calu-6 | 0.764 | 0.344 | 0.173 | 0.0922 | 0.12 | 0.826 | 0.768 | 0.837 | 0.799 | 0.726 | 0.996 | 1.04 | 1.05 | 0.867 | 0.905 | 0.998 | – | 0.712 | 0.297 | 0.133
8 | NCI-H1975 | 1.16 | 1.25 | 1.27 | 1.14 | 0.186 | 0.848 | 0.869 | 0.87 | 0.87 | 0.781 | 0.332 | 0.348 | 0.373 | 0.404 | 0.296 | 1.01 | 0.946 | 1.06 | 0.508 | 0.189
9 | NCI-H2126 | 0.844 | 0.862 | 0.861 | 0.842 | 0.818 | 1.11 | 1.28 | 1.05 | 1.06 | 1.06 | 1.13 | 1.14 | 1.13 | 0.687 | 1.06 | 0.732 | 0.739 | 0.749 | 0.701 | 0.775
10 | NCI-H2087 | 0.976 | 1.07 | 1.23 | 0.933 | 0.156 | 1 | 0.995 | 1.01 | 0.813 | 0.967 | 0.947 | 0.97 | 0.945 | 0.594 | 0.641 | 1.02 | 0.979 | 1.02 | 0.459 | 0.167
